Results: patent US20130071897A1, “METHOD FOR CONTROLLING UNDESIRABLE BYPRODUCTS FORMATION CAUSED BY CONTAMINATING ORGANISMS IN THE PRODUCTION OF ETHANOL FROM SYNGAS” (COSKATA, INC., priority 2011, published 2013)
Values joined by “and” are separate entries in the source; they are usually repeats but may differ in a detail not shown here. Identical values can stand only once.

Experiments:
C. autoethanogenum [1] = experiment: Balch tube batch growth of homoacetogen C. autoethanogenum on fructose, optical density; format: cell-based; conditions: added 21 h after inoculation
Description: These compounds were first tested to determine their effect on a known homoacetogen. Each compound was tested in a series of batch experiments to determine the growth response of a homoacetogen to the presence of the compound at varying concentrations. The batch experiments were all conducted by anoxically filling a Balch tube with 5 ml of a fermentation medium having the composition given in Tables 2 and 3. To expedite results, these batch experiments used fructose as the growth nutrient source for bacteria. Thus, the media included a 5 g/L of fructose.
Each tube was inoculated with 0.5 ml of the same strain of C. autoethanogenum bacteria seed culture inoculum. The tubes were maintained at a temperature of 37° C. Twenty one hours after the inoculation of the tube with the bacteria, the different crotonate derivatives from Table 1 were added to different tubes in the amounts indicated in Table 4 This was at a time of early to mid-log phase growth for the bacteria. Each fermentation of the bacteria in the media at the different concentration of crotonate derivatives were allowed to progress and were monitored to determine the bacteria growth at selected intervals of time varying from approximately 20 hours to 190 hours. Growth at the intervals was measured by reading the optical density (OD) of the fermentation liquid. Optical density was measured using a Spectronic Spec 20 (Thermo Spectronic) at a wavelength of 600 nm. The OD of the Balch tube culture was measured directly in the tube using absorbance mode on the Spec 20 machine. The machine was set to zero absorbance by first measuring and adjusting the setting to zero absorbance using media only as a blank. This process was repeated at each indicated time point throughout the experiment. The ability of a tube fermentation at a particular concentration of crotonate derivative to reach a predetermined optical density was recorded in Table 4. Table 4 indicates the presence of bacterial growth to an OD of approximately 2 or above with a “+”, and to an optical density in a range of 0.5 to 1.5 as a “+/−”, and indicates the failure of bacterial growth to reach an optical density of approximately 0.5 as a “−”.

acyl-CoA dehydrogenases = experiment: In vitro acyl-CoA dehydrogenase ferrocenium assay with C. tyrobutyricum cell-free extract; format: biochemical; conditions: 0.5 to 10 mM compound; rate of ferrocenium reduction at 300 nm
Description: Lehman, et al., in An Acyl-Coenzyme A Dehydrogenase Assay Utilizing the Ferricenium Ion, Analytical Biochemistry 186, pages 280-284 (1990), disclose an in vitro assay screening technique for acyl-CoA dehydrogenases for determining enzyme deficiencies in children. An adaptation of this technique was explored as a potential screening method for ascertaining potential butyrogen inhibitors. An aqueous assay liquor is prepared such that each 1 milliliter sample contains 50 mM of TrisHCl buffer (pH 7.6); 0.05 mM of butyryl-CoA; 5 micromoles of FAD (flavin adenine dinucleotide) and 0.4 mM of ferrocenium. Whole cells of C. tyrobutyricum are lysed and are added to the assay liquor. […] The abbreviation mM stands for millimolar. To assure metabolic consistency among the samples a master batch of C. tyrobutyricum is prepared and harvested at the early log growth stage (approximate O.D. of between about 0.5 and 0.7). The master batch fermentation broth is centrifuged and rinsed with 50 mM TrisHCl buffer (pH 7.6), centrifuged and reconstituted with 50 mM TrisHCl buffer (pH 7.6) to be 10 times more concentrated than the original master batch. Aliquots of about 0.5 milliliter are placed into cryogenic vials (about 1.8 milliliter capacity) and frozen at −80° C. until needed. When needed, a vial is placed in an anoxic Coy chamber and allowed to thaw to room temperature. Once thawed, the cells are added to a 15 mL centrifuge tube and diluted with 0.5 mL of a 2 mg/mL solution of lysozyme (purchased from Aldrich) in 50 mM Tris-HCl (final concentration of lysozyme is about 1 mg/mL). The centrifuge tube is inverted 5 times, removed from the Coy chamber and allowed to incubate at 37° C. for 30 minutes. […] The centrifuge tube is vortexed in the Coy chamber for about 30 seconds, removed from the chamber and centrifuged for 15 minutes at 4000 rpm and 4° C. The tube is returned to the chamber and the cell-free extract (supernatant) is used to prepare the above described samples. The samples are analyzed at various times by absorbance spectroscopy at 300 nm using a Thermo Scientific Evolution 300 UV/Vis spectrophotometer with a 7-cuvette carousel and Starna quartz cuvettes with a septum cap to determine the amount of reduction of ferrocenium. The sample is at laboratory temperature and is maintained under anaerobic conditions. Typically, the absorbance is measured over a period of about 10 to 20 minutes which is sufficient time for the absorbance to stop changing. A linear slope of the rate of change in absorbance during the period that the absorbance is changing is determined using Microsoft Excel® 2010 linear regression to generate a straight line from the data points. The more gradual the slope, the better inhibition because the enzyme is slower at reducing the ferrocenium in the assay sample. A dose-response curve is then determined for each compound by plotting the linear slope against the respective compound concentration. A linear slope is then determined for each compound using Microsoft Excel® 2010 linear regression to generate a straight line from the data points. The steeper the dose-response slope, the better the inhibition because the increased concentration of the compound causes more of a difference in enzyme activity. The dose-response slope generally has a broad standard of deviation due to experimental imprecision and slope determinations.

[2] = tested on: Clostridium tyrobutyricum; experiment: Balch tube batch growth of strict butyrogen Clostridium tyrobutyricum on fructose, optical density; format: cell-based; conditions: added 21 h after inoculation
Description: Similar experiments were conducted to make a preliminary determination as to which of the crotonate and crotonate-like compounds would act as butyrogen retardants. For this purpose the selected compounds were tested again in a series of batch experiments to determine the growth response of butyrogens to the presence of the compound at varying concentrations. The batch experiments were all conducted by anoxically filling a 20 ml Balch tube with 5 ml of a fermentation medium having the composition given in Tables 2 and 3. The media included 0.5 v/v final concentration of a fructose substrate. For each of the crotonate concentrations tested, duplicate test tubes were prepared.
Each tube was inoculated with 0.5 ml seed culture inoculum of the strict butyrogen Clostridium tyrobutyricum. The tubes were maintained at a temperature of 37° C. Twenty one hours after the inoculation of the tube with the bacteria, the different compounds from Table 1 were added to different tubes in the amounts indicated in Table 6. This was at a time of early to mid-log phase growth for the bacteria. Each fermentation of the bacteria in the media at the different concentration of crotonate derivatives were allowed to progress and were monitored to determine the bacteria growth at selected intervals of time varying from approximately 20 hours to 54 hours. Growth at the intervals was measured by reading the optical density (OD) of the fermentation liquid. Optical density was measured as described in Example 1. The ability of a tube fermentation at a particular concentration of crotonate derivative to reach a predetermined optical density was recorded in Table 6. Table 6 indicates the presence of bacterial growth to an OD of approximately 1.8 or above with a “+”, and to an optical density in a range of 0.7 to 1.5 as a “+/−”, and indicates the failure of bacterial growth to reach an optical density of approximately 0.7 as a “−”.

C. autoethanogenum [3] = experiment: Toxicity to C. autoethanogenum by batch fermentation using syngas substrate, optical density; format: cell-based, Clostridium autoethanogenum; conditions: for O.D. Response of Various Inhibitors on C. autoethanogenum: Table 21, one value per compound; for O.D. Response to Various Inhibitors: duplicates A and B, amount not given
Description: In this example various crotonate-like compounds on are evaluated for toxicity to C. autoethanogenum by batch fermentation using syngas substrate. The batch fermentations are conducted by anoxically filling 100 mL serum bottles with 10 mL of media having the composition given in Tables 12 and 13. Duplicate runs are conducted for each concentration. The compounds are: • C-1 Ethyl 4,4,4-trifluoro-3-(trifluoromethyl)crotonate • C-4 4,4,4-Trifluorocrotonamide • C-9 Ethyl 4,4,4-Trifluoro-3-(amino)crotonate • C-18 3 trifluoromethyl-4-methoxybenzoate.
Each bottle is inoculated with 1.0 mL of seed culture inoculum from an active fermenter using syngas substrate and containing Clostridium autoethanogenum, which inoculum has an OD of about 4.92 (which upon a 10 times dilution provides a starting OD for the fermentation of about 0.49). The bottles are gased with syngas to about 100 kilopascals and maintained at a temperature of 37° C. The bottles are regassed with syngas every 8 to 12 hours. The syngas has the approximate composition set forth in Examples 6 to 10. Twenty four hours after inoculation of the bottles with the bacteria, the compounds are added to different bottles as a solution in 50 μL of N-methylpyrrolidone in the amounts indicated in Tables 20 and 21. The fermentation process is allowed to progress at 37° C. At selected intervals of time, bacterial growth is measured by reading the OD of the fermentation liquid using a Thermo Spectronic Genesys 20 spectrophotometer. Optical density is measured by anoxically removing an aliquot of fermentation liquid and adding it to a disposable cuvette. OD's ranging between 0.01 and 0.4 are measured using fermentation liquid directly, while OD's greater than 0.4 are measure after performing a 1/10 dilution with water.

[4] = 0 Hours, added 24 h after inoculation
[5] = 2.5 Hours, added 24 h after inoculation
[6] = 6.5 Hours, added 24 h after inoculation
[7] = 24.5 Hours, added 24 h after inoculation

| SMILES | Optical density valuation of C. autoethanogenum (C. autoethanogenum [1]; 10 ppm(m)) | Optical density valuation of C. autoethanogenum (C. autoethanogenum [1]; 100 ppm(m)) | Optical density valuation of C. autoethanogenum (C. autoethanogenum [1]; 500 ppm(m)) | Optical density valuation of C. autoethanogenum (C. autoethanogenum [1]; 1000 ppm(m)) | Optical density valuation of C. autoethanogenum (C. autoethanogenum [1]; 5000 ppm(m)) | Optical density valuation of C. autoethanogenum (C. autoethanogenum [1]; 10000 ppm(m)) | Dose-Response Slope (acyl-CoA dehydrogenases) | Optical density valuation of C. tyrobutyricum ([2]; 100 ppm(m)) | Optical density valuation of C. tyrobutyricum ([2]; 500 ppm(m)) | Optical density valuation of C. tyrobutyricum ([2]; 1000 ppm(m)) | further results |
| --- | --- | --- | --- | --- | --- | --- | --- | --- | --- | --- | --- |
| CCOC(=O)/C=C/C(F)(F)F [E, ethyl 4,4,4-trifluorocrotonate] | + (bacterial growth to an OD of approximately 2 or above) | + (bacterial growth to an OD of approximately 2 or above) | + (bacterial growth to an OD of approximately 2 or above) | + (bacterial growth to an OD of approximately 2 or above) | − (failure of bacterial growth to reach an optical density of approximately 0.5) | − (failure of bacterial growth to reach an optical density of approximately 0.5) | 6 | + (bacterial growth to an OD of approximately 1.8 or above) | + (bacterial growth to an OD of approximately 1.8 or above) | + (bacterial growth to an OD of approximately 1.8 or above) |  |
| C/C=C/C(=O)OC(C)(C)C [C, Tert-butyl crotonate, reference compound] | + (bacterial growth to an OD of approximately 2 or above) | + (bacterial growth to an OD of approximately 2 or above) | + (bacterial growth to an OD of approximately 2 or above) | + (bacterial growth to an OD of approximately 2 or above) | + (bacterial growth to an OD of approximately 2 or above) | − (failure of bacterial growth to reach an optical density of approximately 0.5) | 6 | + (bacterial growth to an OD of approximately 1.8 or above) | + (bacterial growth to an OD of approximately 1.8 or above) | + (bacterial growth to an OD of approximately 1.8 or above) |  |
| CCOC(=O)/C(C)=C/C(F)(F)F [F, ethyl-2-methyl-4,4,4-trifluorocrotonate, reference compound] | + (bacterial growth to an OD of approximately 2 or above) | + (bacterial growth to an OD of approximately 2 or above) | + (bacterial growth to an OD of approximately 2 or above) | + (bacterial growth to an OD of approximately 2 or above) | +/− (to an optical density in a range of 0.5 to 1.5) | − (failure of bacterial growth to reach an optical density of approximately 0.5) | 2 | + (bacterial growth to an OD of approximately 1.8 or above) | + (bacterial growth to an OD of approximately 1.8 or above) | + (bacterial growth to an OD of approximately 1.8 or above) |  |
| NC(=O)/C=C/C(F)(F)F [Compound C-4, 4,4,4-Trifluorocrotonamide] |  |  |  |  |  |  | 8 |  |  |  | O.D. Response of Various Inhibitors on C. autoethanogenum (C. autoethanogenum [3]; [4]): 0.49; O.D. Response of Various Inhibitors on C. autoethanogenum (C. autoethanogenum [3]; [5]): 0.41; O.D. Response of Various Inhibitors on C. autoethanogenum (C. autoethanogenum [3]; [6]): 0.42; O.D. Response of Various Inhibitors on C. autoethanogenum (C. autoethanogenum [3]; [7]): 1.06; O.D. Response of Various Inhibitors on C. autoethanogenum (C. autoethanogenum [3]; 30.5 Hours): 1.32; O.D. Response of Various Inhibitors on C. autoethanogenum (C. autoethanogenum [3]; 47.5 Hours): 1.67; O.D. Response of Various Inhibitors on C. autoethanogenum (C. autoethanogenum [3]; 56 Hours): 1.72; O.D. Response to Various Inhibitors (C. autoethanogenum [3]; [4]): 0.49; O.D. Response to Various Inhibitors (C. autoethanogenum [3]; [5]): 0.40 and 0.42; O.D. Response to Various Inhibitors (C. autoethanogenum [3]; [6]): 0.4 and 0.43; O.D. Response to Various Inhibitors (C. autoethanogenum [3]; [7]): 1.03 and 1.09; O.D. Response to Various Inhibitors (C. autoethanogenum [3]; 30.5 Hours, added 24 h after inoculation): 1.31 and 1.33; O.D. Response to Various Inhibitors (C. autoethanogenum [3]; 47.5 Hours, added 24 h after inoculation): 1.7 and 1.64 |
